Entries after “also recorded” stand apart in the source; their conditions may differ.

Data set [1] has as its system HepG-2. Kind of data set: MTT antiproliferative assay, HepG-2. The class given is cell-based, human. To be noted: Homo sapiens, HepG2, 48 h, mean ± SD. The text has this:
(§1) The MTT method was used to evaluate the anti-tumor activity and cytotoxic activity of all the synthesized compounds in four tumor cell lines (HeLa, HCT-116, A549 and HepG-2) and normal liver cells (L02). At the same time, the 5-fluorouracil(5-Fu) and CA-4 were used as positive references. […] Unfortunately, our target compound has a similar cytotoxicity to tumor cells and normal cells.
(§2) The HeLa, HCT-116, A549 and HepG-2 cells in the logarithmic growth phase were trypsinized, diluted with 10% DMEM medium and evenly seeded in a 96-well plate with 1 × 10^4 cells per well. We placed the inoculated 96-well plate in an incubator at 37 °C and 5% CO2 for 4 h. After the cells adhered to the wall, we removed the medium. We added 150 μL of medicated medium (1% DMEM) to each well of the experimental group, and the control group was added with an equal volume of solvent, with 3 replicate holes for each concentration. Then, we put it in the incubator and continued to incubate for 48 h. After that, we added MTT reagent in the dark, continued incubating for 4 h, discarded the supernatant, added 150 µL DMSO to each well and shook it for 10 min in the dark to fully dissolved the formazan. The absorbance was read at 492 nm by a microplate reader (ELx 800, BioTek, Highland Park, Winooski, VT, USA).
(§3) The inhibition rate (%) = (1-dosing hole OD value/control hole OD value); we drew a logarithmic curve diagram according to the inhibition rate and the dosing concentration to obtain the half inhibitory concentration.
On the technique in general: Tetrazolium dyes change colour on reduction, which living cells bring about.

Data set [2] deals with A549. As to the kind of experiment: MTT antiproliferative assay, A549. Format: cell-based, human. To be noted: Homo sapiens, A549, 48 h, mean ± SD. The procedure: The MTT method was used to evaluate the anti-tumor activity and cytotoxic activity of all the synthesized compounds in four tumor cell lines (HeLa, HCT-116, A549 and HepG-2) and normal liver cells (L02).
as §2, §3

Data set [3] deals with HeLa. As to the kind of experiment: MTT antiproliferative assay, HeLa. Format: cell-based, human. Particulars: 48 h, mean ± SD.
Text: as §1, §2, §3

Data set [4] deals with L02. As to the kind of experiment: MTT cytotoxicity assay, normal liver cells L02. Format: cell-based. Particulars: Homo sapiens, L02, 48 h, mean ± SD.
Text: as §1, §2, §3

Data set [5] has as its system HeLa, HCT-116, A549 and HepG-2. Kind of data set: MTT antiproliferative activity across the four tumor cell lines. To be noted: SAR discussion. The class given is cell-based, human.
Text: as §1
As shown in, at the beginning, we first synthesized the ortho and meta substituted compounds, D7, D8, D9, D11 and D15. […] Then, we decided to introduce para-substituted benzaldehyde. […] This stimulated our interest, so we continued to introduce -OCH3 substituted at different positions to explore the effect of -OCH3 substituted at different positions on the anti-tumor activity of the compound. […] In short, we obtained a compound named D13 with good anti-tumor activity, and it was worthy of further study.
as §2, §3

In data set [6] the test system is HCT116. As to the kind of experiment: MTT antiproliferative assay, HCT116. Format: cell-based, human. Particulars: Homo sapiens, HCT-116, 48 h, mean ± SD.
Text: as §1, §2, §3

Data set [7] deals with T1, tubulin (Sus scrofa, UniProt P02550+P02554).
T1 construct: purchased Cytoskeleton (Danvers, MA, USA) BK011P
T1 sequence (P02554 whole entry): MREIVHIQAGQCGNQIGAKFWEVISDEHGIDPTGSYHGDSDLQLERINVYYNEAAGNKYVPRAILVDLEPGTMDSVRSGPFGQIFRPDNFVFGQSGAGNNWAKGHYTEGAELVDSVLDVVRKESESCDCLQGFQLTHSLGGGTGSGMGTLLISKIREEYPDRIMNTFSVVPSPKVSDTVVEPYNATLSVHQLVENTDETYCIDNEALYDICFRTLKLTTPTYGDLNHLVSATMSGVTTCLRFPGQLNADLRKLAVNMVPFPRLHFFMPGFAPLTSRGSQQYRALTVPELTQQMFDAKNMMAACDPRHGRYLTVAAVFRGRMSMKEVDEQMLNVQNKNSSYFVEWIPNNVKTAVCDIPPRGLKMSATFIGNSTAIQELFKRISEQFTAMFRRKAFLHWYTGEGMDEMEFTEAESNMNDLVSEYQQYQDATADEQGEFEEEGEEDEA
T1 sequence (P02550 whole entry): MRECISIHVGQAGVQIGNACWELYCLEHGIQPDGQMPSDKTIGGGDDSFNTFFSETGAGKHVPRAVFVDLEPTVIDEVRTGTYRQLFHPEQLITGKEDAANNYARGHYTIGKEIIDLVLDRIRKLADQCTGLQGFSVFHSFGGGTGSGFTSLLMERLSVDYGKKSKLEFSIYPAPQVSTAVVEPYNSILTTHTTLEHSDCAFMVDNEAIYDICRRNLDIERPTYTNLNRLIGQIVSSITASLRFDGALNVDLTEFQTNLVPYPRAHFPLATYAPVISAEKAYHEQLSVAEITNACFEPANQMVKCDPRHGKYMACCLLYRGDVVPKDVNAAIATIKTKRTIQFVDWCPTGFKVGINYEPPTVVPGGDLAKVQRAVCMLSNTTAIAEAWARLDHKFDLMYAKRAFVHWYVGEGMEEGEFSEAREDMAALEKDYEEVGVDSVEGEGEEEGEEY
As to the kind of experiment: In vitro tubulin polymerization assay (fluorescence kit). Format: biochemical. Particulars: area under fluorescence curve, 37 °C, 40 min.
Procedure: A tubulin polymerization assay was performed by measuring the increase in the fluorescence intensity, which can be easily recorded due to the incorporation of a fluorescent reporter, DAPI (4′,6-diamidino-2-phenylindole), a fluorophore that is known to be a DNA intercalator. In our experiment, a commercial kit (cytoskeleton, cat. #BK011P) purchased from Cytoskeleton (Danvers, MA, USA) was used for the tubulin polymerization. The final buffer used for tubulin polymerization contained 80.0 mM of piperazine-N,N’-bis(2ethanesulfonic acid) sequisodium salt (pH 6.9), 2.0 mM MgCl2, 0.5 mM EGTA, 1.0 mM GTP, and 10.2% of glycerol. First, 5 μL of the tested compounds at the indicated concentrations was added, and the mixture was warmed to 37 °C for 1 min; then, the reaction was initiated by the addition of 55 uL of the tubulin solution. The fluorescence intensity enhancement was recorded every 30 s for 40 min in a multifunction microplate reader (Molecular Devices, Flex Station 3) (emission wavelength of 420 nm, excitation wavelength of 360 nm).

The IC50 is the concentration needed to halve the response being measured. Read a high IC50 as a need for much substance. In general, melting point refers to the temperature of the solid-liquid transition. Consider `COc1ccc(CN(c2cc(OC)c(OC)c(OC)c2)S(=O)(=O)c2ccc3c(c2)CCC(=O)N3)cc1` [Compound D13, N-(4-methoxybenzyl)-2-oxo-N-(3,4,5-trimethoxyphenyl)-1,2,3,4-tetrahydroquinoline-6-sulfonamide], for which the melting point was in the range of 122 to 124 °C. The compound also returned an IC50 in data set [1] of 1.82 ± 0.97 µM. Further, in data set [2], the IC50 amounted to 1.57 ± 0.25 µM. This compound returned an IC50 in data set [3] of 1.46 ± 0.11 µM. This compound came in with an IC50 in data set [3] (Homo sapiens, HeLa) of 1.34 µM. In data set [4], this compound gave an IC50 of 3.61 ± 1.02 µM. For the same compound, the “antiproliferative activity (in words)” value in data set [5] was “strongest anti-proliferative activity; also recorded: strong anti-proliferative activity”. This compound also gave an IC50 in data set [6] of 0.94 ± 0.31 µM. In data set [7], this compound registered an IC50 of 6.74 µM.

These data come from publication PMC8911884, “Discovery of Novel 3,4-Dihydro-2(1H)-Quinolinone Sulfonamide Derivatives as New Tubulin Polymerization Inhibitors with Anti-Cancer Activity” (Molecules, 2022).
